Test results reported in US20210009950A1, “ANGIOGENESIS-INDUCING METHOD USING NEURAL STEM CELL” (MEDINNO INC., priority 2018, published 2021).

Experiments:
Groα = assay type: cell-based, human
MCP-1 = assay type: cell-based, human

## [Cl-].[Cl-].[Co+2] [CoCl2]
Groα
  amount of Groα at 24 hours after CoCl2 treatment: increased in a concentration-dependent manner
  amount of Groα at CoCl2 200 μM or more compared to 100 μM: reduced
  amount of Groα, another 24 hours after medium replaced with DMEM/F12: highest when 100 μM CoCl2 was treated
  expression of Gro: increased
Groα; 24 hours
  CoCl2 concentration giving highest Groα at 24 hours after treatment: 500 µM
MCP-1
  amount of MCP-1 at 24 hours after CoCl2 treatment: increased in proportion to the concentration
  amount of MCP-1 at CoCl2 300 μM or more compared to 100 and 200 μM: reduced
  expression level of MCP-1, another 24 hours after medium replaced with DMEM/F12: highest in the case of treatment of 100 μM CoCl2
  expression of MCP-1: increased
